# From ChEMBL document CHEMBL1201862, “PubChem BioAssay data set” (2004)
#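 Values below derive from 48-hour exposures of cells grown in 96-well plates, with endpoints linearly interpolated between the two concentrations bracketing the appropriate inhibition level. The concentration for 50% growth inhibition is given as GI50.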 Calls of active or inactive are those of the source. Cut-off read from the data, not from the text of the source: active = GI50 up to about 1.1 µM and inactive = higher.
# Assays:
# Test in all cases: DTP human tumour cell line panel, 48 h
# NCI-H460 = system: NCI-H460
# OVCAR-5 = system: OVCAR-5
# NCI-H522 = system: NCI-H522
# OVCAR-4 = system: OVCAR-4
# LOX IMVI = system: LOX IMVI
# A549 = system: A549
# CAKI-1 = system: CAKI-1
# SK-MEL-5 = system: SK-MEL-5
# M14 = system: M14
# U-251 = system: U-251
# CCRF-CEM = system: CCRF-CEM
# KM12 = system: KM12
# SW-620 = system: SW-620
# SF-539 = system: SF-539
# SF-295 = system: SF-295
# SK-MEL-2 = system: SK-MEL-2
# COLO 205 = system: COLO 205
# RXF 393 = system: RXF 393
# BT-549 = system: BT-549
# HCT-15 = system: HCT-15
# HCT-116 = system: HCT-116
# NCI/ADR-RES = system: NCI/ADR-RES
# SN12C = system: SN12C
# HOP-92 = system: HOP-92
# UACC-257 = system: UACC-257
# OVCAR-8 = system: OVCAR-8
# MDA-MB-231 = system: MDA-MB-231
# Malme-3M = system: Malme-3M
# MCF7 = system: MCF7
# RPMI-8226 = system: RPMI-8226
# EKVX = system: EKVX
# TK-10 = system: TK-10
# UO-31 = system: UO-31
# MDA-MB-435 = system: MDA-MB-435
# SNB-19 = system: SNB-19
# SK-MEL-28 = system: SK-MEL-28
# K562 = system: K562
# MOLT-4 = system: MOLT-4
# NCI-H23 = system: NCI-H23
# ACHN = system: ACHN
# A498 = system: A498
# SF-268 = system: SF-268
# OVCAR-3 = system: OVCAR-3
# MDA-N = system: MDA-N
# UACC-62 = system: UACC-62
# SK-OV-3 = system: SK-OV-3
# IGROV-1 = system: IGROV-1
# PC-3 = system: PC-3
# T47D = system: T47D
# DU-145 = system: DU-145
# Hs-578T = system: Hs-578T
# HL-60 = system: HL-60
# HOP-62 = system: HOP-62
# HCC 2998 = system: HCC 2998
# HT-29 = system: HT-29
# 786-0 = system: 786-0
# NCI-H226 = system: NCI-H226
# SNB-75 = system: SNB-75
structure (smiles),measurement,setting,value
Oc1ccc(Cl)cc1C1=Nn2c(COc3ccc4c(c3)CCCC4)nnc2SC1,GI50,NCI-H460,14 µM (inactive)
same,GI50,OVCAR-5,17.2 µM (inactive)
same,GI50,NCI-H522,6.84 µM (inactive)
same,GI50,OVCAR-4,1.44 µM (inactive)
same,GI50,LOX IMVI,14 µM (inactive)
same,GI50,A549,25.5 µM (inactive)
same,GI50,CAKI-1,19.4 µM (inactive)
same,GI50,SK-MEL-5,5.25 µM (inactive)
same,GI50,M14,14.2 µM (inactive)
same,GI50,U-251,15.3 µM (inactive)
same,GI50,CCRF-CEM,17 µM (inactive)
same,GI50,KM12,14.6 µM (inactive)
same,GI50,SW-620,16.8 µM (inactive)
same,GI50,SF-539,16.7 µM (inactive)
same,GI50,SF-295,14 µM (inactive)
same,GI50,SK-MEL-2,15.4 µM (inactive)
same,GI50,COLO 205,16 µM (inactive)
same,GI50,RXF 393,16.5 µM (inactive)
same,GI50,BT-549,18.3 µM (inactive)
same,GI50,HCT-15,17.9 µM
same,GI50,HCT-116,6.56 µM (inactive)
same,GI50,NCI/ADR-RES,14.8 µM (inactive)
same,GI50,SN12C,6.28 µM (inactive)
same,GI50,HOP-92,3.04 µM (inactive)
same,GI50,UACC-257,16.3 µM (inactive)
same,GI50,OVCAR-8,14.9 µM (inactive)
same,GI50,MDA-MB-231,14.8 µM (inactive)
same,GI50,Malme-3M,> 100 µM (inactive)
same,GI50,MCF7,14.7 µM (inactive)
same,GI50,RPMI-8226,4.99 µM (inactive)
same,GI50,EKVX,15.9 µM (inactive)
same,GI50,TK-10,4.72 µM (inactive)
same,GI50,UO-31,10.5 µM (inactive)
same,GI50,MDA-MB-435,17 µM (inactive)
same,GI50,SNB-19,20.7 µM (inactive)
same,GI50,SK-MEL-28,0.129 µM (active)
same,GI50,K562,10.5 µM (inactive)
same,GI50,MOLT-4,11 µM (inactive)
same,GI50,NCI-H23,11.4 µM (inactive)
same,GI50,ACHN,15.4 µM (inactive)
same,GI50,A498,1.49 µM (inactive)
same,GI50,SF-268,16.4 µM (inactive)
same,GI50,OVCAR-3,12.6 µM (inactive)
same,GI50,MDA-N,14.6 µM (inactive)
same,GI50,UACC-62,12.4 µM (inactive)
same,GI50,SK-OV-3,16.9 µM (inactive)
same,GI50,IGROV-1,11.6 µM (inactive)
same,GI50,PC-3,10.6 µM (inactive)
same,GI50,T47D,11.2 µM (inactive)
same,GI50,DU-145,18.3 µM (inactive)
same,GI50,Hs-578T,14.3 µM (inactive)
same,GI50,HL-60,15 µM (inactive)
same,GI50,HOP-62,13.2 µM (inactive)
N#Cc1nnn(C2CCCCC2)c1O,GI50,NCI-H460,> 100 µM (inactive)
same,GI50,OVCAR-5,> 100 µM (inactive)
same,GI50,NCI-H522,> 100 µM (inactive)
same,GI50,HCC 2998,> 100 µM (inactive)
same,GI50,HT-29,> 100 µM (inactive)
same,GI50,OVCAR-4,> 100 µM (inactive)
same,GI50,786-0,> 100 µM (inactive)
same,GI50,LOX IMVI,> 100 µM (inactive)
same,GI50,A549,> 100 µM (inactive)
same,GI50,CAKI-1,> 100 µM (inactive)
same,GI50,SK-MEL-5,> 100 µM (inactive)
same,GI50,M14,> 100 µM (inactive)
same,GI50,U-251,> 100 µM (inactive)
same,GI50,CCRF-CEM,> 100 µM (inactive)
same,GI50,KM12,> 100 µM (inactive)
same,GI50,SW-620,> 100 µM (inactive)
same,GI50,SF-539,> 100 µM (inactive)
same,GI50,NCI-H226,> 100 µM (inactive)
same,GI50,SF-295,> 100 µM (inactive)
same,GI50,SK-MEL-2,> 100 µM (inactive)
same,GI50,COLO 205,> 100 µM (inactive)
same,GI50,RXF 393,> 100 µM (inactive)
same,GI50,BT-549,> 100 µM (inactive)
same,GI50,HCT-15,> 100 µM
same,GI50,HCT-116,> 100 µM (inactive)
same,GI50,NCI/ADR-RES,> 100 µM (inactive)
same,GI50,SN12C,> 100 µM (inactive)
same,GI50,UACC-257,> 100 µM (inactive)
same,GI50,OVCAR-8,> 100 µM (inactive)
same,GI50,MDA-MB-231,> 100 µM (inactive)
same,GI50,Malme-3M,> 100 µM (inactive)
same,GI50,MCF7,> 100 µM (inactive)
same,GI50,RPMI-8226,10 µM (inactive)
same,GI50,EKVX,> 100 µM (inactive)
same,GI50,TK-10,> 100 µM (inactive)
same,GI50,UO-31,> 100 µM (inactive)
same,GI50,SNB-75,> 100 µM (inactive)
same,GI50,MDA-MB-435,> 100 µM (inactive)
same,GI50,SNB-19,> 100 µM (inactive)
same,GI50,SK-MEL-28,> 100 µM (inactive)
same,GI50,MOLT-4,> 100 µM (inactive)
same,GI50,NCI-H23,> 100 µM (inactive)
same,GI50,ACHN,> 100 µM (inactive)
same,GI50,A498,> 100 µM (inactive)
same,GI50,SF-268,> 100 µM (inactive)
same,GI50,OVCAR-3,> 100 µM (inactive)
same,GI50,MDA-N,> 100 µM (inactive)
same,GI50,UACC-62,> 100 µM (inactive)
same,GI50,SK-OV-3,> 100 µM (inactive)
same,GI50,IGROV-1,> 100 µM (inactive)
same,GI50,PC-3,> 100 µM (inactive)
same,GI50,T47D,> 100 µM (inactive)
same,GI50,DU-145,> 100 µM (inactive)
same,GI50,Hs-578T,> 100 µM (inactive)
same,GI50,HL-60,> 100 µM (inactive)
same,GI50,HOP-62,> 100 µM (inactive)
CC(=N/NC(=S)N1CCCCCC1)/C(C)=N\NC(=S)N1CCCCCC1,GI50,NCI-H460,4.38 µM (inactive)
same,GI50,OVCAR-5,7.89 µM (inactive)
same,GI50,NCI-H522,4.14 µM (inactive)
same,GI50,HCC 2998,3.12 µM (inactive)
same,GI50,HT-29,2.63 µM (inactive)
same,GI50,OVCAR-4,1.79 µM (inactive)
same,GI50,786-0,4.54 µM (inactive)
same,GI50,LOX IMVI,> 10 µM (inactive)
same,GI50,A549,5.3 µM (inactive)
same,GI50,CAKI-1,4.91 µM (inactive)
same,GI50,SK-MEL-5,4.86 µM (inactive)
same,GI50,M14,5.25 µM (inactive)
same,GI50,U-251,2.43 µM (inactive)
same,GI50,KM12,4.59 µM (inactive)
same,GI50,SW-620,2.37 µM (inactive)
same,GI50,SF-539,20.7 µM (inactive)
same,GI50,NCI-H226,3.42 µM (inactive)
same,GI50,SF-295,4.93 µM (inactive)
same,GI50,SK-MEL-2,1.97 µM (inactive)
same,GI50,COLO 205,5.43 µM (inactive)
same,GI50,RXF 393,3.77 µM (inactive)
same,GI50,BT-549,5.27 µM (inactive)
same,GI50,HCT-15,4.34 µM
same,GI50,HCT-116,5.08 µM (inactive)
same,GI50,NCI/ADR-RES,5.25 µM (inactive)
same,GI50,SN12C,1.91 µM (inactive)
same,GI50,HOP-92,1.32 µM (inactive)
same,GI50,UACC-257,5.2 µM (inactive)
same,GI50,OVCAR-8,15.7 µM (inactive)
same,GI50,MDA-MB-231,7.98 µM (inactive)
same,GI50,Malme-3M,5.5 µM (inactive)
same,GI50,MCF7,4.7 µM (inactive)
same,GI50,RPMI-8226,5.66 µM (inactive)
same,GI50,EKVX,3.85 µM (inactive)
same,GI50,TK-10,4.34 µM (inactive)
same,GI50,UO-31,3.75 µM (inactive)
same,GI50,SNB-75,5.09 µM (inactive)
same,GI50,MDA-MB-435,1.83 µM (inactive)
same,GI50,SNB-19,6.18 µM (inactive)
same,GI50,SK-MEL-28,1.88 µM (inactive)
same,GI50,K562,13.2 µM (inactive)
same,GI50,MOLT-4,> 100 µM (inactive)
same,GI50,NCI-H23,4.83 µM (inactive)
same,GI50,ACHN,3.38 µM (inactive)
same,GI50,A498,1.78 µM (inactive)
same,GI50,SF-268,3.45 µM (inactive)
same,GI50,OVCAR-3,5.6 µM (inactive)
same,GI50,MDA-N,6.55 µM (inactive)
same,GI50,UACC-62,4.29 µM (inactive)
same,GI50,SK-OV-3,3.88 µM (inactive)
same,GI50,IGROV-1,3.84 µM (inactive)
same,GI50,PC-3,5.86 µM (inactive)
same,GI50,T47D,1.75 µM (inactive)
same,GI50,DU-145,3.21 µM (inactive)
same,GI50,Hs-578T,3.87 µM (inactive)
same,GI50,HOP-62,4.98 µM (inactive)
